Reference: US20260069530A1, “METHODS OF TREATING PRIMARY LIVER TUMORS WITH NATURAL KILLER CELLS EXPRESSING A CYTOTOXIC RECEPTOR COMPLEX” (NKARTA, INC., priority 2018, published 2026)

Tests used:
[1] = system: Huh-7; assay: sorafenib dose-response against HCC cell lines; details: read-out: EC50 (concentration to achieve 50% cytotoxicity); FIG. 7B
[2] = system: HCC cells
Procedure: NKX101 cells were generated by transduction with a bicistronic virus encoding NKG2D, an intracellular OX40 costimulatory domain, CD33 signaling domain, and membrane-bound IL-15, which supports prolonged cell survival and proliferation. […] Combination with a sub-EC50 concentration of the kinase inhibitor Sorafenib (used here as a non-limiting example of an additional anti-cancer agent), an approved agent for HCC, was tested for additive cytotoxic effect with at low E:T ratios of NKX101 NK cells in vitro at 48 hrs.

[3] = system: SNU-387 cells; assay: sorafenib dose-response against HCC cell lines; details: read-out: EC50 (concentration to achieve 50% cytotoxicity); FIG. 7B
[4] = system: NKG2D ligands; assay: total NKG2D ligand expression on HCC cell lines, flow cytometry with NKG2D-Fc; format: cell-based, human
Text: (§1) FIGS. 17A-17N relate to expression of total NKG2D ligands and PD-L1 in relation to sorafenib concentration. FIGS. 17A-17F depict flow cytometry data related to changes in total NKG2D ligand expression in the indicated tumor cell lines in response to various concentrations of sorafenib (total expression is based on the use of the NKG2D-Fc fusion, so detection is of any ligand NKG2D could bind). FIGS. 17G-17L depict flow cytometry data related to changes in PD-L1 expression in the indicated tumor cell lines in response to various concentrations of sorafenib. FIGS. 17M and 17N are line graphs that summarize the flow cytometry data.
(§2) FIGS. 18A-18T relate to expression of total NKG2D ligands and PD-L1 in relation to Interferon gamma (IFNg) concentration. FIGS. 18A-18I depict flow cytometry data related to changes in total NKG2D ligand expression in the indicated tumor cell lines in response to various concentrations of IFNg (total expression is based on the use of the NKG2D-Fc fusion, so detection is of any ligand NKG2D could bind). […]
(§3) To investigate a possible mechanism of action regarding the sensitivity of hepatocellular carcinoma cells to sorafenib, the expression of the total population of NKG2D ligands on each cell line was measured in response to various doses of sorafenib. The total population of NKG2D ligands was detected through the use of the NKG2D-Fc chimeric antibody. […]

[5] = system: PD-L1; assay: PD-L1 expression on HCC cell lines, flow cytometry; format: cell-based, human
Text: as §1, §2, §3

[6] = system: HL60 cells; assay: HL60 leukemia cell growth in co-culture with NK cells, with or without HDAC inhibitor; format: cell-based; details: valproic acid added to culture with NK cells expressing the NKG2D CAR (FIG. 35B)
Procedure: As discussed above, additional agents can be co-administered with engineered NK cells disclosed herein. For example, in several embodiments, histone deacetylase inhibitors are administered with engineered NK cells targeting an NKG2D ligand (or other tumor marker, such as CD123 or CD19). The leukemia cell line was grown alone as a control, co-cultured with NK cells expressing GFP, or co-cultured with NK cells expressing an NKG2D CAR as disclosed herein. By way of non-limiting example, the NKG2D CAR used in this example was NKG2D-OX40-[…]-mbIL15. […] According to additional embodiments, other HDAC inhibitors are used, such as romidepsin (e.g. FR901228), entinostat (e.g., MS-275) phenylbutyrate, belinostat (PDX101), sodium valproate, suberoylanilide hydroxamic acid, or combinations thereof.

For `CNC(=O)c1cc(Oc2ccc(NC(=O)Nc3ccc(Cl)c(C(F)(F)F)c3)cc2)ccn1` [sorafenib], the EC50 [1] was 7.96 µM, the “cytotoxic effect of combination” value [2] was “additive effect” and the EC50 [3] was 29.4 µM. For the same compound, the “change in total NKG2D ligand expression” value ([4]; various doses of sorafenib (FIG. 17M)) was “does not appear to have a substantial impact on the NKG2D ligand expression” and the “change in PD-L1 expression” value ([5]; 10 micromolar sorafenib (FIG. 17N)) was “many of the cell lines show an increase in PD-L1 expression”.
“interferon gamma: inflammatory cytokine secreted by NK cells once activated” was tested, and the “change in total NKG2D ligand expression” value ([4]; various concentrations of interferon gamma, nine HCC lines (FIG. 18S)) was “there does not appear to be a clear impact of interferon gamma on the expression of the total pool of NKG2D ligands” and the “change in PD-L1 expression” value ([5]; higher doses of interferon gamma (FIG. 18T)) was “several cell lines seem to show a trend towards increasing PD-L1 expression with the higher doses of interferon gamma”.
With `CCCC(CCC)C(=O)O` [valproic acid] the HL60 cell growth [6] was “synergistically interacted with the NK cells expressing the NKG2D CAR dramatically suppress HL-60 cell growth”.
